Experimental data as given in patent US20240268419A1, “IgA PRODUCTION PROMOTING AGENT AND FEED COMPOSITION FOR PROMOTING IgA PRODUCTION” (Nippon Beet Sugar Manufacturing Co., Ltd., priority 2022, published 2024).

Test system: IgA production in the intestinal tract
Test: IgA concentration in feces of suckling calves fed DFAIII (ELISA)
Assay type: in vivo, Holstein calves
Settings: for IgA Concentration (mg/g feces): mean ± standard deviation
Text: Twelve head of Holstein calves in suckling period as test subjects were divided into a control group (7 head) and a DFAIII feeding group (5 head). Colostrum was fed to the calves up to 6 days old after birth. In the DFAIII feeding group, 6 g each of difructose anhydride III (DFAIII) (manufactured by Nippon Beet Sugar Manufacturing Co., Ltd.; product name: Koushi no Mikata) was mixed with the colostrum and fed to the calves in the first and second colostrum feeding after birth (at 0 to 1 day old). From 7 days old, the 7 head of calves in suckling period in the control group were fed with a starter, which is a mixed feed for calf in suckling period (manufactured by Nippon Beet Sugar Manufacturing Co., Ltd.; product name: Start; component contents: protein 22%, total digestible nutrients 74%), and the 5 head of calves in suckling period in the DFAIII feeding group were fed with a feed (DFAIII-containing feed) in which DFAIII (manufactured by Nippon Beet Sugar Manufacturing Co., Ltd.) was added in an amount of 2.0 wt % to and mixed with the starter, by free feeding together with hay and water. The amount 2.0 wt % of DFAIII in the DFAIII-containing feed is calculated as the weight proportion (w/w %) of DFAIII relative to the total weight of the starter and DFAIII. From seven days old, 2 L of 15% milk substitute solution (without DFAIII) was further fed to the calves in suckling period twice a day.
Fresh feces were collected from the calves of each test group at 7 days old, 14 days old, 21 days old, and 28 days old. The IgA concentrations in feces were measured by the ELISA method using an IgA ELISA Quantitation Kit (manufactured by BETHYL Laboratories, Inc.). The IgA concentration in feces was expressed in a milligram amount of IgA per wet mass of the feces.

For OC[C@H]1O[C@@]2(CO[C@]3(CO)O[C@H](CO)[C@@H](O)[C@@H]3O2)[C@@H](O)[C@@H]1O [DFAIII, di-D-fructofuranose 1, 2:2,3′ dianhydride], the “IgA Concentration (mg/g feces)” value (7 days old, Holstein calves in suckling period, 6 g DFAIII in first and second colostrum feeding) was 0.65 ± 0.32 mg/g feces, the “IgA Concentration (mg/g feces)” value (14 days old, 6 g DFAIII in colostrum x2, then starter with 2.0 wt % DFAIII from 7 days old, free feeding) was 1.19 ± 0.45 mg/g feces and the “IgA Concentration (mg/g feces)” value (21 days old, 6 g DFAIII in colostrum x2, then starter with 2.0 wt % DFAIII from 7 days old, free feeding) was 2.60 ± 1.01 mg/g feces. The “IgA Concentration (mg/g feces)” value (28 days old, 6 g DFAIII in colostrum x2, then starter with 2.0 wt % DFAIII from 7 days old, free feeding) was 1.01 ± 1.34 mg/g feces and the “IgA concentrations in feces in comparison with the control group” value (DFAIII feeding group vs control group, Holstein calves in suckling period) was “statistically significantly higher”.
